Laboratory results from patent US12172975B2, “1H-indazole carboxamides as receptor-interacting protein kinase 1 inhibitors (RIPK1)” (BRISTOL-MYERS SQUIBB COMPANY, priority 2018, dated 2024).
pIC50: −log10 of the molar value. Structures can show the parent of a compound that is named as a salt. Where two headings read alike, the source gives them in different places.

Tested on: MLKL phosphorylation in HT29-L23 human colorectal adenocarcinoma cells
Test: MLKL Phosphorylation High-Content Assay
Type: cell-based
Settings: 6 h, necroptosis induced with TNFα, SMAC mimetic and Z-VAD, read-out: pMLKL (IC50)
Procedure: MLKL Phosphorylation High-Content Assay
HT29-L23 human colorectal adenocarcinoma cells were maintained in RPMI 1640 medium containing 10% heat-inactivated FBS, 1% Penicillin-Streptomycin and 10 mM HEPES. Cells were seeded at 2,000 cells/well in 384 well tissue culture-treated microplates (Greiner #781090-3B) and incubated at 37° C. (5% CO2/95% O2) for 2 d. […] (5% CO2/95% O2). Necroptopsis was induced using a mixture of human TNFα (35 ng/mL) (Peprotech #300-01A), SMAC mimetic (from US 2015/0322111 A1) (700 nM) and Z-VAD ([…]) (BD pharmingen #51-6936). Following 6 h incubation at 37° C. (5% CO2/95% O2), the cells were fixed with 4% formaldehyde (ACROS 11969-0010) for 15 min at rt, then permeabilized with phosphate buffered saline (PBS) containing 0.2% Triton-X-100 for 10 min. MLKL phosphorylation was detected using anti-MLKL (phospho S358) antibody (Abeam #ab 187091) (1:1000 dilution in Blocking Buffer [PBS supplemented with 0.1% BSA]) with ON incubation at 4° C. After washing three times in PBS, goat anti-rabbit Alexa-488 (1:1000 dilution) (Life Technologies, A11008) and Hoechst 33342 (Life Technologies, H3570) (1:2000 dilution) in Blocking Buffer were added for 1 h at rt.
Following another three cycles of washes in PBS, the microplates were sealed, and cellular images were acquired in the Cellomics ArrayScan VTI high-content imager equipped with an X1 camera. Fluorescent images were taken using a 10× objective and the 386-23 BGRFRN_BGRFRN and 485-20 BGRFRN_BGRFRN filter sets, for nuclei and MLKL phosphorylation, respectively. The image sets were analyzed using the Compartmental Analysis Bioapplication software (Cellomics). The level of MLKL phosphorylation was quantified as MEAN_CircRingAvglntenRatio. The maximal inhibitory response was defined by the activity induced by Neels (CAS #: 852391-15-2, 6.25 μM). […] The data were fitted using the 4-parameter logistic equation to calculate the IC50 and Ymax values.

Row | Structure (SMILES) | pIC50 (Homo sapiens) | pIC50
1 | [2H]C([2H])([2H])Oc1ncc(-c2ccc3c(C(=O)NC)n[nH]c3c2)cc1C(=O)N[C@H](C)c1ccccc1C(F)(F)F [Example 33, 6-[6-(deutero)methoxy-5-{[(1R)-1-[2-(trifluoromethyl)phenyl]-ethyl]carbamoyl}pyridin-3-yl]-N-methyl-1H-indazole-3-carbox-amide] | 7.60 | 
2 | [2H]C([2H])([2H])Oc1ncc(-c2ccc3c(C(=O)NC4CC4)n[nH]c3c2)cc1C(=O)N[C@@H](C)c1cccc(C(F)(F)F)c1 [Example 211, N-cyclopropyl-6-[6-(deutero)-methoxy-5-{[(1S)-1-[3-(trifluoro-methyl)phenyl]ethyl]carbamoyl}-pyridin-3-yl]-1H-indazole-3-carboxamide] | 7.57 | 
3 | [2H]C([2H])([2H])Oc1ncc(-c2ccc3c(C(=O)NC)n[nH]c3c2)cc1C(=O)N[C@@H](c1cc(C(F)(F)F)ccc1F)C([2H])([2H])[2H] [Example 4, (R)-6-(5-((1-(2-fluoro-5-(trifluoromethyl)phenyl)ethyl-2,2,2-d3)carbamoyl)-6-(methoxy-d3)pyridin-3-yl)-N-methyl-1H-indazole-3-carboxamide, TFA] | 7.72 | 
4 | CNC(=O)c1n[nH]c2cc(-c3cnc(OC)c(C(=O)NCCC(O)c4ccc(F)c(F)c4)c3)ccc12 (stereo not drawn) [Example 39, 6-(5-{[3-(3,4-difluorophenyl)-3-hydroxypropyl]carbamoyl}-6-methoxypyridin-3-yl)-N-methyl-1H-indazole-3-carboxamide] | 8.10 | 
5 | CNC(=O)c1n[nH]c2cc(-c3cnc(OC)c(C(=O)NCC4CC4c4cccc(F)c4)c3)ccc12 (stereo not drawn) [Example 48, 6-[5-({[2-(3-fluorophenyl)-cyclopropyl]methyl}carbamoyl)-6-methoxypyridin-3-yl]-N-methyl-1H-indazole-3-carbox-amide] |  | 6.75
6 | CNC(=O)c1n[nH]c2cc(-c3cnc(OC)c(C(=O)NC[C@H]4C[C@@H]4c4ccc(F)cc4)c3)ccc12 [Example 43, 6-[5-({[(1S,2S)-2-(4-fluoro-phenyl)cyclopropyl]methyl}-carbamoyl)-6-methoxypyridin-3-yl]-N-methyl-1H-indazole-3-carboxamide] |  | 7.00
7 | CNC(=O)c1n[nH]c2cc(-c3cnc(OC)c(C(=O)N[C@H](C)CC(=O)OC(C)(C)C)c3)ccc12 [Example 141, tert-butyl (3R)-3-({2-methoxy-5-[3-(methylcarbamoyl)-1H-indazol-6-yl]pyridin-3-yl}-formamido)butanoate] | 7.39 | 
8 | CNC(=O)c1n[nH]c2cc(-c3cc(C(=O)NCc4cc(OC(F)(F)F)ccc4F)c(OC)nc3C)ccc12 [Example 161, 6-[5-({[2-fluoro-5-(tri-fluoromethoxy)phenyl]-methyl}carbamoyl)-6-methoxy-2-methylpyridin-3-yl]-N-methyl-1H-indazole-3-carboxamide] | 7.13 | 
9 | [2H]C([2H])([2H])Oc1ncc(-c2ccc3c(C(=O)NC)n[nH]c3c2)cc1C(=O)N[C@@H](c1cc(OC(F)(F)F)ccc1F)C([2H])([2H])[2H] [Example 9, (R)-6-(5-((1-(2-fluoro-5-(trifluoromethoxy)phenyl)ethyl-2,2,2-d3)carbamoyl)-6-(methoxy-d3)pyridin-3-yl)-N-methyl-1H-indazole-3-carboxamide, TFA] | 7.66 | 
10 | CNC(=O)c1n[nH]c2cc(-c3cnc(OC)c(C(=O)N[C@@H](C)c4cc(OC(F)(F)F)ccc4F)c3)ccc12 [Example 222] |  | 7.85
11 | CNC(=O)c1n[nH]c2cc(-c3cnc(OC)c(C(=O)NCCS(=O)(=O)Nc4ccccc4)c3)ccc12 [Example 47, 6-(6-methoxy-5-{[2-(phenyl-sulfamoyl)ethyl]carbamoyl}-pyridin-3-yl)-N-methyl-1H-indazole-3-carboxamide] | 7.42 | 
12 | [2H]C([2H])([2H])Oc1ncc(-c2ccc3c(C(=O)NC)n[nH]c3c2)cc1C(=O)NC(C)c1ccccc1OC(F)(F)F (single isomer, unassigned) [Example 15, 6-(6-methoxyd3-5-((1-(2-(trifluoromethoxy)phenyl)ethyl)carbamoyl)pyridin-3-yl)-N-methyl-1H-indazole-3-carboxamide] | 8.47 | 
